Laboratory results published in patent US11661431B2, “Thienopyrrole compounds” (Gilead Sciences, Inc., priority 2021, dated 2023).
pEC50: −log10 of the molar value. Like-named read-outs stand apart in the source and are kept apart here.

Columns and labels:
TLR7 = TLR7 (Homo sapiens (Human), UniProt Q9NYK1); experiment: TLR7 human peripheral blood mononuclear cell (PBMC) cell-based assay (GS-986 as agonist; IL-6 and IFNα readout); conditions: TLR7 agonist GS-986 at 400 nM, 6 hours, antagonist potency
Outline: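 Human PBMCs (100,000 cells/well) preincubated 1 h at 37 °C with antagonist in 10-point dose response, then stimulated with TLR7 agonist for a further 6 h at 37 °C, 5% CO2. Supernatant IL-6 and IFNα measured by electrochemiluminescence immunoassay.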

TLR8 = TLR8 (Homo sapiens (Human), UniProt Q9NR97); experiment: TLR8 human peripheral blood mononuclear cell (PBMC) cell-based assay (Compound A as agonist; TNFα and IL12p40 readout); conditions: TLR8 agonist Compound A at 800 nM, 6 hours, antagonist potency
[1] = human PBMCs, read-out: TLR-7 EC50
[2] = human PBMCs, read-out: TLR-8 EC50

Chain of TLR8 (Q9NR97 27-1041): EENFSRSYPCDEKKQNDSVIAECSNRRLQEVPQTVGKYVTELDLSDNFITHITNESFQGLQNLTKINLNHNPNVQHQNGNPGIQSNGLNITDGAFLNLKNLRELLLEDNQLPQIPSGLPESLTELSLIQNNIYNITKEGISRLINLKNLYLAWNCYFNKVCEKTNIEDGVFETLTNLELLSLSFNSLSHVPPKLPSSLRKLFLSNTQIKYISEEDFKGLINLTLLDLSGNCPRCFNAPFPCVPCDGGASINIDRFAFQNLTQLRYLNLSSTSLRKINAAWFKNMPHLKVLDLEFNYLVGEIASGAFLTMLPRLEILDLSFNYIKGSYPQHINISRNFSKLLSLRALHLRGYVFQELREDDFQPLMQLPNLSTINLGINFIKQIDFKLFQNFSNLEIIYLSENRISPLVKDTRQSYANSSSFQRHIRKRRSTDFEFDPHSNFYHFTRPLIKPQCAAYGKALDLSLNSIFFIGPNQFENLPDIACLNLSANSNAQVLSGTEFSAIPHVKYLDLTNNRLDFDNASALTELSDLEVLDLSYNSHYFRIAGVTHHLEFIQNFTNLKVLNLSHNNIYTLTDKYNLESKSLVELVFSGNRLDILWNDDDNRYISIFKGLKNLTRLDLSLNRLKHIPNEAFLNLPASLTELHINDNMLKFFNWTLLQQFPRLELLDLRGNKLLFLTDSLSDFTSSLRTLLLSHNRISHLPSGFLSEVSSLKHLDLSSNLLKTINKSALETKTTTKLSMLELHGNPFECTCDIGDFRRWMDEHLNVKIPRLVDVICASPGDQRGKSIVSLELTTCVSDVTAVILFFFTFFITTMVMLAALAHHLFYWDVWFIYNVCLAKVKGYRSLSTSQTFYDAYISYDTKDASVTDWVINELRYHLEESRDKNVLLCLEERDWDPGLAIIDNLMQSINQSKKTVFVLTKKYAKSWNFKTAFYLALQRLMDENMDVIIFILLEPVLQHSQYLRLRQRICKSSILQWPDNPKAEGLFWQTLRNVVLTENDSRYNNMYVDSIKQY
Chain of TLR7 (Q9NYK1 27-1049): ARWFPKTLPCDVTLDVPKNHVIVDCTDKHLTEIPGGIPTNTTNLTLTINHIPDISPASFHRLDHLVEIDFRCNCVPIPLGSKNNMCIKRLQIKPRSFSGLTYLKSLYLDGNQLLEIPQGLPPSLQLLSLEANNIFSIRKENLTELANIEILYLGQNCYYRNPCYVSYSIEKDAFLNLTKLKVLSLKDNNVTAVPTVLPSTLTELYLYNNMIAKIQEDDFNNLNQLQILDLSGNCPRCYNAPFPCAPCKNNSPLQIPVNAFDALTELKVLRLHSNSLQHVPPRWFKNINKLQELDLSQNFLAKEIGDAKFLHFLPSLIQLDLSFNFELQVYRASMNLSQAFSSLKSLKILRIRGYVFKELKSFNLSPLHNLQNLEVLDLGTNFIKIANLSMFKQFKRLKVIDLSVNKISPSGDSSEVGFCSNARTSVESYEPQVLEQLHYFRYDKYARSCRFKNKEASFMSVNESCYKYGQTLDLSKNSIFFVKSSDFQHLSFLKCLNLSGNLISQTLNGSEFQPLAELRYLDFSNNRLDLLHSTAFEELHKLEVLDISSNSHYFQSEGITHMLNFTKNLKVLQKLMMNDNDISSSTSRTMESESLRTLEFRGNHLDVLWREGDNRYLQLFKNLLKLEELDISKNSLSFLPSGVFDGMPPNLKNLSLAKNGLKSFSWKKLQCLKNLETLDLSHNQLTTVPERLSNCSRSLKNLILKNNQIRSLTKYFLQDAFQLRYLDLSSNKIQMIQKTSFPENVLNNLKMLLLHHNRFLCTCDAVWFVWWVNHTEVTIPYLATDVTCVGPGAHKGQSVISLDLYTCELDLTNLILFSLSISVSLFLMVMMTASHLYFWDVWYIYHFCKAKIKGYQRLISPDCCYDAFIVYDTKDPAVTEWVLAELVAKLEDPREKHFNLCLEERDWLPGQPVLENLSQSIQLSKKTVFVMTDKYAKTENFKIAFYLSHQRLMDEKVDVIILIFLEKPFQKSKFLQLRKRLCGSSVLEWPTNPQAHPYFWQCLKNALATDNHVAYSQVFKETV

SMILES	pEC50 (TLR7; [1])	pEC50 (TLR8; [2])	pEC50 (TLR7; TLR-7 EC50, human PBMCs)	pEC50 (TLR8; TLR-8 EC50, human PBMCs)
Cc1c(-c2[nH]c3sc([C@H]4C[C@@H]5CC[C@H]4CN5Cc4cn(C)nn4)c(C)c3c2C(C)C)cn2ncnc2c1C (single isomer, unassigned) [Example 215]	> 10.30	9.11	–	–
Cc1c(-c2[nH]c3sc(C4CCC(C(=O)N5CCNCC5)CC4)c(C)c3c2C(C)C)cn2ncnc2c1C (stereo not shown) [Example 309, (4-(5-(7,8-dimethyl-[1,2,4]triazolo[1,5-a]pyridin-6-yl)-4-isopropyl-3-methyl-6H-thieno[2,3-b]pyrrol-2-yl)cyclohexyl)(piperazin-1-yl)methanone]	9.85	8.09	–	–
Cc1c(-c2[nH]c3sc([C@@H]4C[C@@H]5C[C@H]4CN5Cc4c[nH]nn4)c(C)c3c2C(C)C)cn2ncnc2c1C [Example 174]	> 10.30	10.05	–	–
Cc1nc2c(C)cc(-c3[nH]c4sc([C@@H]5C[C@@H]6C[C@H]5CN6CC(N)=O)c(C)c4c3C(C)C)cn2n1 [Example 121]	> 10.30	9.89	–	–
Cc1c(C23CCNCC2C3)sc2[nH]c(-c3cc(C)c4ncnn4c3)c(C(C)C)c12 (stereo not shown) [Example 195]	10.30	8.67	–	–
Cc1c(-c2[nH]c3sc([C@@H]4C[C@@H]5C[C@H]4CN5CCS(C)(=O)=O)c(C)c3c2C(C)C)cn2ncnc2c1C [Example 83]	9.35	9.21	–	–
Cc1cc(-c2[nH]c3sc(C(=O)N4CCNCC4)cc3c2C(C)C)cn2ncnc12 [Example 2]	8.98	8.24	–	–
Cc1c(-c2[nH]c3sc(C4CCN(C(=O)[C@H]5C[C@@]6(CN(CC(F)F)CCO6)C5)CC4)c(C)c3c2C(C)C)cn2ncnc2c1C [Example 298, [8-(2,2-difluoroethyl)-5-oxa-8-azaspiro[3.5]nonan-2-yl]-[4-[5-(7,8-dimethyl-[1,2,4]triazolo[1,5-a]pyridin-6-yl)-4-isopropyl-3-methyl-6H-thieno[2,3-b]pyrrol-2-yl]-1-piperidyl]methanone]	> 10.30	7.91	–	–
Cc1c(-c2[nH]c3sc(-c4cccc(C5CCN(CC(N)=O)CC5)c4)c(C)c3c2C(C)C)cn2ncnc2c1C [Example 223]	7.81	7.18	–	–
Cc1c(C2CCN(CC(N)=O)CC2)sc2[nH]c(C3=NC(C)c4ncccc43)c(C(C)C)c12 (stereo not shown) [Example 232]	9.08	7.73	–	–
Cc1c(-c2[nH]c3sc(C4C[C@@H]5C[C@H]4CN5CC(=O)N4CCC4)c(C)c3c2C(C)C)cn2ncnc2c1C (stereo partly shown) [Example 268]	> 10.30	9.62	–	–
Cc1c(-c2[nH]c3sc(C4COC5(CCN(CC(N)=O)CC5)C4)c(C)c3c2C(C)C)cn2ncnc2c1C (single isomer, unassigned) [Example 88, 2-(3-(5-(7,8-dimethyl-[1,2,4]triazolo[1,5-a]pyridin-6-yl)-4-isopropyl-3-methyl-6H-thieno[2,3-b]pyrrol-2-yl)-1-oxa-8-azaspiro[4.5]decan-8-yl)acetamide]	8.84	7.62	–	–
Cc1c(-c2[nH]c3sc(C4CCN(C(=O)[C@H]5C[C@@]6(CN(CCO)CCO6)C5)CC4)c(C)c3c2C(C)C)cn2ncnc2c1C [Example 295, [4-[5-(7,8-dimethyl-[1,2,4]triazolo[1,5-a]pyridin-6-yl)-4-isopropyl-3-methyl-6H-thieno[2,3-b]pyrrol-2-yl]-1-piperidyl]-[8-(2-hydroxethyl)-5-oxa-8-azaspiro[3.5]nonan-2-yl]methanone]	10.22	7.73	–	–
Cc1c(-c2[nH]c3sc(C4C[C@H]5CC[C@@H]4N5CC(N)=O)c(C)c3c2C(C)C)cn2ncnc2c1C (stereo partly shown) [Example 227]	–	–	8.29	7.81
Cc1nnc(CN2C[C@@H]3C[C@H]2C[C@H]3c2sc3[nH]c(-c4cn5ncnc5c(C)c4C)c(C(C)C)c3c2C)o1 [Example 119]	9.47	8.34	–	–
Cc1c(-c2[nH]c3sc([C@@H]4C[C@@H]5C[C@H]4CN5Cc4cc[nH]c(=O)c4)c(C)c3c2C(C)C)cn2ncnc2c1C [Example 177]	9.30	10.15	–	–
Cc1c(-c2[nH]c3sc(C4CCC45CN(CC(N)=O)C5)c(C)c3c2C(C)C)cn2ncnc2c1C (single isomer, unassigned) [Example 315, 2-(5-(5-(7,8-dimethyl-[1,2,4]triazolo[1,5-a]pyridin-6-yl)-4 isopropyl-3-methyl-6H-thieno[2,3-b]pyrrol-2-yl)-2-azaspiro[3.3]heptan-2-yl)acetamide]	7.55	7.49	–	–
Cc1c(-c2[nH]c3sc([C@@H]4C[C@@H]5C[C@H]4CN5CC(=O)NC4COC4)c(C)c3c2C(C)C)cn2ncnc2c1C [Example 274]	8.81	8.91	–	–
Cc1c(-c2[nH]c3sc([C@@H]4C[C@@H]5C[C@H]4CN5CCCS(C)(=O)=O)c(C)c3c2C(C)C)cn2ncnc2c1C [Example 164]	9.64	> 10.30	–	–
Cc1c(-c2[nH]c3sc([C@H]4C[C@H]5C[C@@H]4CN5)c(C)c3c2C(C)C)cn2ncnc2c1C [Example 74]	10.30	9.03	–	–

More lines, main results first:

pEC50 (TLR7; [1])	pEC50 (TLR8; [2])	SMILES	pEC50 (TLR7; TLR-7 EC50, human PBMCs)	pEC50 (TLR8; TLR-8 EC50, human PBMCs)
8.65	7.51	Cc1c(C2C[C@H]3CC[C@@H]2CN3)sc2[nH]c(-c3cc(C)c4ncnn4c3)c(C(C)C)c12 (stereo partly shown) [Example 189]	–	–
8.64	8.13	Cc1cc(-c2[nH]c3sc([C@H]4C[C@]5(CCCN(CC(N)=O)C5)C4)c(C)c3c2C(C)C)cn2ncnc12 [Example 142]	–	–
10.22	8.35	Cc1c(C2CCN(C(=O)CN3CCCC3)CC2)sc2[nH]c(-c3cc(C)c4ncnn4c3)c(C(C)C)c12 [Example 34]	–	–
8.29	7.51	Cc1c(C2CC23CCN(CC(N)=O)CC3)sc2[nH]c(-c3cc(C)c4ncnn4c3)c(C(C)C)c12 (stereo not shown) [Example 211]	–	–
9.82	7.21	Cc1c(C2CCN(C(=O)[C@H]3COC(C)(C)CN3)CC2)sc2[nH]c(-c3cc(C)c4ncnn4c3)c(C(C)C)c12 [Example 158]	–	–
9.46	7.91	Cc1c(C2CCN(C(=O)C34CC(F)(CN3)C4)CC2)sc2[nH]c(-c3cc(C)c4ncnn4c3)c(C(C)C)c12 [Example 41]	–	–
9.49	7.72	Cc1c(C2CCN(C(=O)[C@H]3C[C@H](F)CN3)CC2)sc2[nH]c(-c3cc(C)c4ncnn4c3)c(C(C)C)c12 [Example 43]	–	–
> 10.30	8.46	Cc1c(-c2[nH]c3sc(C4CCN(C(=O)[C@@H]5CNCCO5)CC4)c(C)c3c2C(C)C)cn2ncnc2c1C [Example 109]	–	–
10.15	8.50	Cc1c(C2CCN(C(=O)C34CC(CN3)C4)CC2)sc2[nH]c(-c3cc(C)c4ncnn4c3)c(C(C)C)c12 [Example 40]	–	–
8.47	6.59	Cc1c(C2CC3COCC(C2)N3CC(N)=O)sc2[nH]c(-c3cc(C)c4ncnn4c3)c(C(C)C)c12 (stereo not shown) [Example 30]	–	–
9.13	7.90	Cc1nc2c(C)cc(-c3[nH]c4sc(C5CCN(CC(N)=O)CC5)c(C)c4c3C(C)C)cn2n1 [Example 134]	–	–
8.79	7.34	Cc1c(C2CCN(C(=O)C3CNC3)CC2)sc2[nH]c(-c3cc(C)c4ncnn4c3)c(C(C)C)c12 [Example 16]	–	–
9.80	8.67	Cc1c(C2CC3(CCNCC3)C2)sc2[nH]c(-c3cc(C)c4ncnn4c3)c(C(C)C)c12 [Example 123]	–	–
9.03	9.68	Cc1c(C2CC3(C2)CN(CC(N)=O)C3)sc2[nH]c(-c3cc(C)c4ncnn4c3)c(C(C)C)c12 [Example 29]	–	–
9.96	8.53	Cc1c(C2CCC3(CC2)CN(CC(N)=O)C3)sc2[nH]c(-c3cc(C)c4ncnn4c3)c(C(C)C)c12 [Example 25]	–	–
9.74	7.35	CCc1c(C2CCN(CC(N)=O)CC2)sc2[nH]c(-c3cc(C)c4ncnn4c3)c(C(C)C)c12 [Example 206]	–	–
8.63	8.00	Cc1c(CC2CCN(CC(N)=O)CC2)sc2[nH]c(-c3cc(C)c4ncnn4c3)c(C(C)C)c12 [Example 210]	–	–
10.30	7.96	Cc1c(C2CCN(C(=O)[C@H]3CCCN3C)CC2)sc2[nH]c(-c3cc(C)c4ncnn4c3)c(C(C)C)c12 [Example 18]	–	–
10.10	8.31	Cc1c(C2CCNCC2)sc2[nH]c(-c3cc(C)c4ncnn4c3)c(C(C)C)c12 [Example 8, 4-Isopropyl-3-methyl-5-(8-methyl-[1,2,4]triazolo[1,5-a]pyridin-6-yl)-2-(piperidin-4-yl)-6H-thieno[2,3-b]pyrrole]	–	–
9.51	7.56	Cc1cc(-c2[nH]c3sc(C4CCN(C(=O)[C@H]5COCCN5)CC4)c(CO)c3c2C(C)C)cn2ncnc12 [Example 260, (R)-(4-(3-(hydroxymethyl)-4-isopropyl-5-(8-methyl-[1,2,4]triazolo[1,5-a]pyridin-6-yl)-6H-thieno[2,3-b]pyrrol-2-yl)piperidin-1-yl)(morpholin-3-yl)methanone]	–	–
8.79	7.85	Cc1c(-c2[nH]c3sc([C@@H]4C[C@@H]5C[C@H]4CN5C(=O)[C@@H]4C[C@@H](F)CN4)c(C)c3c2C(C)C)cn2ncnc2c1C [Example 150]	–	–
8.66	7.86	Cc1c(-c2[nH]c3sc(C4CCN(C(=O)[C@@H]5NCCO[C@H]5C)CC4)c(C)c3c2C(C)C)cn2ncnc2c1C [Example 281]	–	–
9.82	7.46	CCc1c(C2CCN(C(=O)[C@H]3COCCN3)CC2)sc2[nH]c(-c3cc(C)c4ncnn4c3)c(C(C)C)c12 [Example 208]	–	–
9.42	8.79	Cc1c(C2CCC3(C2)CN(CC(N)=O)C3)sc2[nH]c(-c3cc(C)c4ncnn4c3)c(C(C)C)c12 (stereo not shown) [Example 122]	–	–
